{
  "source": "PubChem BioAssay AID1919010",
  "about": "(Molecular Pharmacology Branch, DTP, NCI, 2023)",
  "tested_on": "Hs578T complex spheroid growth, percent test/control",
  "experiment": "Anticancer human tumor Hs578T cell line growth inhibition [AhR];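 note: luminescent viability signal as a proxy for spheroid growth; spheroids exposed to agents for one week after three days of growth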",
  "settings": "for IC50: curve of first compound; for viability, T/C: stronger effect = lower value",
  "outline": "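Complex tumor spheroids co-cultured with HUVEC and human MSC stroma; AhR antagonists tested in combination with standard-of-care and investigational agents. Top concentration at or near clinical Cmax (else 10 microM), half-log dilutions; growth expressed as percent test/control.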",
  "data": [
    {"smiles": "CC1(C)CCC(CN2CCN(c3ccc(C(=O)NS(=O)(=O)c4ccc(NCC5CCOCC5)c([N+](=O)[O-])c4)c(Oc4cnc5[nH]ccc5c4)c3)CC2)=C(c2ccc(Cl)cc2)C1", "note": "+ Cc1ccccc1N=Nc1ccc(NC(=O)c2ccnn2C)c(C)c1", "values": [
      {"measurement": "IC50", "setting": "second compound 0.1 µM", "value": "> 10", "unit": "µM"},
      {"measurement": "IC50", "setting": "second compound 0.316 µM", "value": "> 10", "unit": "µM"},
      {"measurement": "IC50", "setting": "second compound 1 µM", "value": "> 10", "unit": "µM"},
      {"measurement": "IC50", "setting": "second compound 3.16 µM", "value": "> 10", "unit": "µM"},
      {"measurement": "IC50", "setting": "second compound 10 µM", "value": "> 10", "unit": "µM"},
      {"measurement": "viability, T/C", "setting": "second compound 0.1 µM, first compound 0.0316 µM", "value": 117, "unit": "%"},
      {"measurement": "viability, T/C", "setting": "second compound 0.1 µM, first compound 0.1 µM", "value": 106, "unit": "%"},
      {"measurement": "viability, T/C", "setting": "second compound 0.1 µM, first compound 0.316 µM", "value": 100, "unit": "%"},
      {"measurement": "viability, T/C", "setting": "second compound 0.1 µM, first compound 1 µM", "value": 101, "unit": "%"},
      {"measurement": "viability, T/C", "setting": "second compound 0.1 µM, first compound 3.16 µM", "value": 97.3, "unit": "%"},
      {"measurement": "viability, T/C", "setting": "second compound 0.1 µM, first compound 10 µM", "value": 65.1, "unit": "%"},
      {"measurement": "viability, T/C", "setting": "second compound 0.316 µM, first compound 0.0316 µM", "value": 106, "unit": "%"},
      {"measurement": "viability, T/C", "setting": "second compound 0.316 µM, first compound 0.1 µM", "value": 106, "unit": "%"},
      {"measurement": "viability, T/C", "setting": "second compound 0.316 µM, first compound 0.316 µM", "value": 113, "unit": "%"},
      {"measurement": "viability, T/C", "setting": "second compound 0.316 µM, first compound 1 µM", "value": 109, "unit": "%"},
      {"measurement": "viability, T/C", "setting": "second compound 0.316 µM, first compound 3.16 µM", "value": 95.9, "unit": "%"},
      {"measurement": "viability, T/C", "setting": "second compound 0.316 µM, first compound 10 µM", "value": 65.8, "unit": "%"},
      {"measurement": "viability, T/C", "setting": "second compound 1 µM, first compound 0.0316 µM", "value": 103, "unit": "%"},
      {"measurement": "viability, T/C", "setting": "second compound 1 µM, first compound 0.1 µM", "value": 105, "unit": "%"},
      {"measurement": "viability, T/C", "setting": "second compound 1 µM, first compound 0.316 µM", "value": 108, "unit": "%"},
      {"measurement": "viability, T/C", "setting": "second compound 1 µM, first compound 1 µM", "value": 94.8, "unit": "%"},
      {"measurement": "viability, T/C", "setting": "second compound 1 µM, first compound 3.16 µM", "value": 97.2, "unit": "%"},
      {"measurement": "viability, T/C", "setting": "second compound 1 µM, first compound 10 µM", "value": 75.4, "unit": "%"},
      {"measurement": "viability, T/C", "setting": "second compound 3.16 µM, first compound 0.0316 µM", "value": 94.7, "unit": "%"},
      {"measurement": "viability, T/C", "setting": "second compound 3.16 µM, first compound 0.1 µM", "value": 95.9, "unit": "%"},
      {"measurement": "viability, T/C", "setting": "second compound 3.16 µM, first compound 0.316 µM", "value": 102, "unit": "%"},
      {"measurement": "viability, T/C", "setting": "second compound 3.16 µM, first compound 1 µM", "value": 90.3, "unit": "%"},
      {"measurement": "viability, T/C", "setting": "second compound 3.16 µM, first compound 3.16 µM", "value": 89.5, "unit": "%"},
      {"measurement": "viability, T/C", "setting": "second compound 3.16 µM, first compound 10 µM", "value": 69.3, "unit": "%"},
      {"measurement": "viability, T/C", "setting": "second compound 10 µM, first compound 0.0316 µM", "value": 66.1, "unit": "%"},
      {"measurement": "viability, T/C", "setting": "second compound 10 µM, first compound 0.1 µM", "value": 65.3, "unit": "%"},
      {"measurement": "viability, T/C", "setting": "second compound 10 µM, first compound 0.316 µM", "value": 65.9, "unit": "%"},
      {"measurement": "viability, T/C", "setting": "second compound 10 µM, first compound 1 µM", "value": 68.9, "unit": "%"},
      {"measurement": "viability, T/C", "setting": "second compound 10 µM, first compound 3.16 µM", "value": 67.2, "unit": "%"},
      {"measurement": "viability, T/C", "setting": "second compound 10 µM, first compound 10 µM", "value": 64.3, "unit": "%"}
    ]}
  ]
}
